Assay results taken from ChEMBL document CHEMBL1177769, “Reducing ion channel activity in a series of 4-heterocyclic arylamide FMS inhibitors” (Bioorg Med Chem Lett, 2010).

Assays:
Type in all cases: ADME, organism-based
Settings in all cases: in vivo
[1] = Cmax in rat at 0.5 mg/kg, iv and 5 mg/kg, po
[2] = Volume of distribution in rat at 0.5 mg/kg, iv and 5 mg/kg, po
Rattus norvegicus = assay: Liver blood flow in rat at 0.5 mg/kg, iv and 5 mg/kg, po
[3] = Bioavailability in rat at 0.5 mg/kg, iv and 5 mg/kg, po

## CN1CC(c2ccc(NC(=O)c3nc(C#N)c[nH]3)c(C3=CCCCC3)c2)CN(C)S1(=O)=O
[1]
  Cmax: 839 ng/mL
[2]
  Vd: 0.564 L/kg
Rattus norvegicus
  LBF: 55 mL/min/kg
[3]
  bioavailability: 15%
